The series in a line: dermal toxicity test with moistened product (US EPA guidelines), samples secured to skin for 24 hours. To be noted: rabbit, in vivo, topical or ocular, male rabbits, 24 hours exposure, survivors observed for 14 days, read-out: LD50 DOSAGE. Here is the method: Dermal toxicity tests using this formulation, a conventional synthetic polymer formulation comprising 10% w/w phorate and pure phorate (10% w/w) were performed on male rabbits by securing samples to the skin of the test animals for a period of 24 hours. At the expiry of this period rabbits were examined for mortality and surviving rabbits observed for 14 days before sacrifice and examination. The LD50 values are shown below in table 3.

The structures appear in SMILES notation.

As to `CCOP(=S)(OCC)SCSCC` [Technical grade phorate (10% w/w), phorate], the LD50 stood at 5.2 mg/kg.
